Columns and labels:
[1] = tested on: G-quadruplex in promoter region of the c-myc gene (NHE III1 segment); assay: Dual luciferase analysis with plasmid pGL4.10-myc (luc2) in HGC-27 cells; assay type: cell-based, human; settings: Homo sapiens; for inhibition at 50 µM: HGC-27, text summary of tab. 5 (50 μmol·l^−1), read-out: inhibition of expression of firefly luciferase as compared to control; for activity at 50 µM: helquat 50 μmol · l^−1, HGC-27, firefly normalized to Renilla, 24 hours after transfection, read-out: luciferase expression relative to control (control = 100%)
Summary of the method: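 HGC-27 cells were co-transfected 1:1 with pGL4.10-myc (luc2), whose firefly luciferase is driven by an 860 bp c-myc regulatory region containing the G-quadruplex-forming NHE III1 segment, and pRL-TK Renilla control, using X-tremeGENE HP DNA in OptiMEM. Compounds were added two hours post-transfection; luminescence read 24 hours after transfection was Renilla-normalized and expressed relative to control.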

c-myc protein = assay: Immunodetection of protein c-myc in HGC-27 cell lysates (Western blot); assay type: cell-based, human; settings: 50 μmol · l^−1, 24 hour incubation, normalized to β-actin
Protocol: Determination of changes in c-myc protein expression (transcription factor) in cell lysates prepared from tumor cell line HGC-27 after treatment with test helquats (Tab. 7) was carried out by immunodetection after separation of proteins according to their size by gel electrophoresis (SDS-PAGE) and blotting.
To determine the influence helquats on expression of c-myc protein, the cells were cultured under standard conditions and in the exponential growth phase were seeded into flasks at a density of 25,000 cells/cm^2. The next day selected helquats were added at a concentration of 50 μmol·l^−1. After 24 hour incubation, the cell pellets were obtained and, after addition of RIPA buffer with protease inhibitors (PrIC) and phosphatases (PhIC) (for composition see Tab. 8) cell lysates were prepared. 150 μl of RIPA buffer was used for 10^7 cells. Protein concentrations in the lysates were measured by BCA method. Separation of proteins in the lysates was carried out on a 12% denaturing polyacrylamide gel. The separated proteins were transferred to PVDF membrane by Western blotting.
Incubation with primary mouse monoclonal antibody against the protein c-myc (dilution 1:1000 in “SignalBoost” reagent) was carried out overnight at 4° C., and then with the primary mouse anti-β-actin (1:5000 dilution in 5% milk in TBS-T buffer) at room temperature for 2 hours. Subsequently, the secondary horse monoclonal antibody conjugated to horseradish peroxidase (diluted 1:2000 in 5% milk in TBS-T buffer) binding to mouse IgG antibody was applied. C-myc proteins and β-actin bound to the membrane were visualized using detection kit (SuperSignal® West Femto Maximum Sensitivity Substrate, Cat. No. 34095, Thermo Fisher Scientific, Inc., USA) in the chemiluminescence detection system ImageQuant LAS 4000 Mini (Cat. No. 28-9558-13, GE Healthcare Life Sciences, USA). The amount of protein was quantified by densitometry in Quantity One software. The amount of c-myc in the samples was normalized to β-actin, and subsequently related to a control sample.

SMILES	inhibition at 50 µM [1] [%]	activity at 50 µM [1] [%]	c-myc protein expression relative to control (control = 100%) (c-myc protein) [%]
Cc1c(C)c2c(c3c1CC[n+]1ccc(/C=C/c4ccsc4)cc1-3)-c1cccc(/C=C/c3ccsc3)[n+]1CC2 (racemic) [MJB-C5-9, (rac)-8,9-dimethyl-2,13-bis((E)-2-(thiophen-3-yl)vinyl)-6,7,10,11-tetrahydrodipyrido[2,1-a:1′,2′-k][2,9]phenanthroline-5,12-diium trifluoromethanesulfonate]	> 20	75	30
C(=C\c1cccc2c1oc1ccccc12)/c1cc[n+]2c(c1)-c1c(ccc3c1-c1cccc[n+]1CC3)CC2.O=S(=O)([O-])C(F)(F)F.O=S(=O)([O-])C(F)(F)F [LSA-C13-8, (E)-2-(2-(dibenzo[b,d]furan-4-yl)vinyl)-6,7,10,11-tetrahydrodipyrido[2,1-a:1′,2′-k][2,9]phenanthroline-5,12-diium trifluoromethanesulfonate]	> 40	58	15
CCOC(=O)c1cc(/C=C/c2cc[n+]3c(c2)-c2c(c(C)c(C)c4c2-c2c5ccccc5cc[n+]2CC4)CC3)c[nH]1.O=S(=O)([O-])C(F)(F)F.O=S(=O)([O-])C(F)(F)F [MJA-C8-28, (E)-13-(2-(5-(ethoxycarbonyl)-1H-pyrrol-3-yl)vinyl)-6,7-dimethyl-4,5,8,9-tetrahydroisoquinolino[1,2-a]pyrido[1,2-k][2,9]phenanthroline-3,10-diium trifluoromethanesulfonate]	> 20	72	23
CCCCCCc1ccc(/C=C/c2cc[n+]3c(c2)-c2c(c(C)c(C)c4c2-c2c5ccccc5cc[n+]2CC4)CC3)s1.O=S(=O)([O-])C(F)(F)F.O=S(=O)([O-])C(F)(F)F [MJA-C11-25, (E)-13-(2-(5-hexylthiophen-2-yl)vinyl)-6,7-dimethyl-4,5,8,9-tetrahydroisoquinolino[1,2-a]pyrido[1,2-k][2,9]phenanthroline-3,10-diium trifluoromethanesulfonate]			66
Cc1c(C)c2c(c3c1CC[n+]1ccc(/C=C/c4ccc(-n5c6ccccc6c6ccccc65)cc4)cc1-3)-c1c3ccccc3cc[n+]1CC2.O=S(=O)([O-])C(F)(F)F.O=S(=O)([O-])C(F)(F)F [MJA-C19-4, (E)-13-(4-(9H-carbazol-9-yl)styryl)-6,7-dimethyl-4,5,8,9-tetrahydroisoquinolino[1,2-a]pyrido[1,2-k][2,9]phenanthroline-3,10-diium trifluoromethanesulfonate]			81
Cc1nc[nH]c1/C=C/c1cc[n+]2c(c1)-c1c(c(C)c(C)c3c1-c1cccc(/C=C/c4[nH]cnc4C)[n+]1CC3)CC2.O=S(=O)([O-])C(F)(F)F.O=S(=O)([O-])C(F)(F)F [MJB-C5-11, 8,9-dimethyl-2,13-bis((E)-2-(4-methyl-1H-imidazol-5-yl)vinyl)-6,7,10,11-tetrahydrodipyrido[2,1-a:1′,2′-k][2,9]phenanthroline-5,12-diium trifluoromethanesulfonate]			23
Cc1nc[nH]c1/C=C/c1cc[n+]2c(c1)-c1c(ccc3c1-c1cc(/C=C/c4[nH]cnc4C)cc[n+]1CC3)CC2.O=S(=O)([O-])C(F)(F)F.O=S(=O)([O-])C(F)(F)F [PDA-C5-11, 2,15-bis((E)-2-(4-methyl-1H-imidazol-5-yl)vinyl)-6,7,10,11-tetrahydrodipyrido[2,1-a:1′,2′-k][2,9]phenanthroline-5,12-diium trifluoromethanesulfonate]			80
Cc1c(C)c2c(c3c1CC[n+]1ccc(/C=C/c4cccc5c4oc4ccccc45)cc1-3)-c1cc(/C=C/c3cccc4c3oc3ccccc34)cc[n+]1CC2.O=S(=O)([O-])C(F)(F)F.O=S(=O)([O-])C(F)(F)F [PDB-C13-8, 2,15-bis((E)-2-(dibenzo [b,d]furan-4-yl)vinyl)-8,9-dimethyl-6,7,10,11-tetrahydrodipyrido[2,1-a:1′,2′-k][2,9]phenanthroline-5,12-diium trifluoromethanesulfonate]			83
Cc1c(C)c2c(c3c1CC[n+]1ccc4ccccc4c1-3)-c1cccc(/C=C/c3cccc4c3oc3ccccc34)[n+]1CC2.O=S(=O)([O-])C(F)(F)F.O=S(=O)([O-])C(F)(F)F [VDJA-C13-8, (E)-11-(2-(dibenzo[b,d]furan-4-yl)vinyl)-6,7-dimethyl-4,5,8,9-tetrahydroisoquinolino[1,2-a]pyrido[1,2-k][2,9]phenanthroline-3,10-diium trifluoromethanesulfonate]	> 20	76	77

Reference: patent US9932339B2, “Helquats with heteroaromatic substituents, preparation thereof, and use thereof as G-quadruplex stabilizers” (USTAV ORGANICKE CHEMIE A BIOCHEMIE AV CR, V.V.I., priority 2014, dated 2018)
